Tested on: 616215-338-R-J1-PDC tumor spheroids, viability
Experiment: Anticancer human tumor 616215-338-R-J1-PDC patient-derived colon adenocarcinoma cell line growth inhibition [GQUAD]
Details: spheroids with HUVEC and MSC; for IC50: curve of first compound; for viability, T/C: stronger effect = lower value
Outline: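 Viability of tumor cells grown as complex spheroids with endothelial and stromal cells, exposed to drug combinations. Top concentration at or near clinical Cmax (else 10 microM), diluted in half-log increments.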

[1] = second compound 0.0316 µM, first compound 0.0316 µM
[2] = second compound 0.0316 µM, first compound 0.1 µM
[3] = second compound 0.0316 µM, first compound 0.316 µM
[4] = second compound 0.0316 µM, first compound 1 µM
[5] = second compound 0.0316 µM, first compound 3.16 µM
[6] = second compound 0.0316 µM, first compound 10 µM
[7] = second compound 0.1 µM, first compound 0.0316 µM
[8] = second compound 0.1 µM, first compound 0.1 µM
[9] = second compound 0.1 µM, first compound 0.316 µM
[10] = second compound 0.1 µM, first compound 1 µM
[11] = second compound 0.1 µM, first compound 3.16 µM
[12] = second compound 0.1 µM, first compound 10 µM
[13] = second compound 0.316 µM, first compound 0.0316 µM
[14] = second compound 0.316 µM, first compound 0.1 µM
[15] = second compound 0.316 µM, first compound 0.316 µM
[16] = second compound 0.316 µM, first compound 1 µM
[17] = second compound 0.316 µM, first compound 3.16 µM
[18] = second compound 0.316 µM, first compound 10 µM
[19] = second compound 1 µM, first compound 0.0316 µM
[20] = second compound 1 µM, first compound 0.1 µM
[21] = second compound 1 µM, first compound 0.316 µM
[22] = second compound 1 µM, first compound 1 µM
[23] = second compound 1 µM, first compound 3.16 µM
[24] = second compound 1 µM, first compound 10 µM
[25] = second compound 3.16 µM, first compound 0.0316 µM
[26] = second compound 3.16 µM, first compound 0.1 µM
[27] = second compound 3.16 µM, first compound 0.316 µM
[28] = second compound 3.16 µM, first compound 1 µM
[29] = second compound 3.16 µM, first compound 3.16 µM
[30] = second compound 3.16 µM, first compound 10 µM
[31] = second compound 10 µM, first compound 0.0316 µM
[32] = second compound 10 µM, first compound 0.1 µM
[33] = second compound 10 µM, first compound 0.316 µM
[34] = second compound 10 µM, first compound 1 µM
[35] = second compound 10 µM, first compound 3.16 µM
[36] = second compound 10 µM, first compound 10 µM
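Also: spheroids exposed to agents for 7 days before readout.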
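For viability, T/C in this document: percent viability relative to DMSO vehicle control wells taken as 100%.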

CC(C)n1c(=O)n(C)c2cnc3cc(F)c(-c4ccc(OCCCN5CCCCC5)nc4)cc3c21 + CN(C)c1ccc(Nc2c3ccc(NC(=O)CCN4CCCC4)cc3nc3cc(NC(=O)CCN4CCCC4)ccc23)cc1
IC50 (second compound 0.0316 µM): > 10 µM | IC50 (second compound 0.1 µM): > 10 µM | IC50 (second compound 0.316 µM): > 10 µM | IC50 (second compound 1 µM): > 10 µM | IC50 (second compound 3.16 µM): 9.93 µM | IC50 (second compound 10 µM): 3.09 µM | viability, T/C [1]: 110% | viability, T/C [2]: 112% | viability, T/C [3]: 96.3% | viability, T/C [4]: 109% | viability, T/C [5]: 105% | viability, T/C [6]: 62.2% | viability, T/C [7]: 110% | viability, T/C [8]: 104% | viability, T/C [9]: 101% | viability, T/C [10]: 111% | viability, T/C [11]: 103% | viability, T/C [12]: 81.1% | viability, T/C [13]: 97.2% | viability, T/C [14]: 99.7% | viability, T/C [15]: 97.8% | viability, T/C [16]: 103% | viability, T/C [17]: 121% | viability, T/C [18]: 95.7% | viability, T/C [19]: 101% | viability, T/C [20]: 97.2% | viability, T/C [21]: 103% | viability, T/C [22]: 97.9% | viability, T/C [23]: 111% | viability, T/C [24]: 83.5% | viability, T/C [25]: 105% | viability, T/C [26]: 101% | viability, T/C [27]: 101% | viability, T/C [28]: 91.9% | viability, T/C [29]: 100% | viability, T/C [30]: 49.6% | viability, T/C [31]: 95.8% | viability, T/C [32]: 77.1% | viability, T/C [33]: 55.6% | viability, T/C [34]: 64.6% | viability, T/C [35]: 61.6% | viability, T/C [36]: 7.08%

CC1COCCN1c1cc(-c2ccnn2C)c2ccnc(-c3ccn[nH]3)c2n1 (stereo not given) + CN(C)c1ccc(Nc2c3ccc(NC(=O)CCN4CCCC4)cc3nc3cc(NC(=O)CCN4CCCC4)ccc23)cc1
IC50 (second compound 0.0316 µM): 0.157 µM | IC50 (second compound 0.1 µM): 0.147 µM | IC50 (second compound 0.316 µM): 0.164 µM | IC50 (second compound 1 µM): 0.142 µM | IC50 (second compound 3.16 µM): 0.129 µM | IC50 (second compound 10 µM): 0.129 µM | viability, T/C [1]: 99.1% | viability, T/C [2]: 61.8% | viability, T/C [3]: 31.1% | viability, T/C [4]: 25.6% | viability, T/C [5]: 18.4% | viability, T/C [6]: 21.6% | viability, T/C [7]: 94.4% | viability, T/C [8]: 58.5% | viability, T/C [9]: 33.5% | viability, T/C [10]: 21.2% | viability, T/C [11]: 21.6% | viability, T/C [12]: 22.4% | viability, T/C [13]: 93% | viability, T/C [14]: 65.4% | viability, T/C [15]: 29.1% | viability, T/C [16]: 23.1% | viability, T/C [17]: 20.7% | viability, T/C [18]: 18.6% | viability, T/C [19]: 90.1% | viability, T/C [20]: 55.5% | viability, T/C [21]: 38.1% | viability, T/C [22]: 22.6% | viability, T/C [23]: 18.8% | viability, T/C [24]: 25.7% | viability, T/C [25]: 91.7% | viability, T/C [26]: 55.6% | viability, T/C [27]: 30.2% | viability, T/C [28]: 23.8% | viability, T/C [29]: 22.2% | viability, T/C [30]: 16.7% | viability, T/C [31]: 88.4% | viability, T/C [32]: 53.8% | viability, T/C [33]: 35.8% | viability, T/C [34]: 24.2% | viability, T/C [35]: 19.7% | viability, T/C [36]: 18.5%

CC1COCCN1c1cc(C2(S(C)(=N)=O)CC2)nc(-c2ccnc3[nH]ccc23)n1 (stereo not given) + CN(C)c1ccc(Nc2c3ccc(NC(=O)CCN4CCCC4)cc3nc3cc(NC(=O)CCN4CCCC4)ccc23)cc1
IC50 (second compound 0.0316 µM): 2.8 µM | IC50 (second compound 0.1 µM): 4.91 µM | IC50 (second compound 0.316 µM): 5.62 µM | IC50 (second compound 1 µM): 5.2 µM | IC50 (second compound 3.16 µM): 5.18 µM | IC50 (second compound 10 µM): 3.47 µM | viability, T/C [1]: 116% | viability, T/C [2]: 102% | viability, T/C [3]: 103% | viability, T/C [4]: 97.6% | viability, T/C [5]: 44.4% | viability, T/C [6]: 31.5% | viability, T/C [7]: 105% | viability, T/C [8]: 97% | viability, T/C [9]: 104% | viability, T/C [10]: 98% | viability, T/C [11]: 63.5% | viability, T/C [12]: 28.2% | viability, T/C [13]: 98.1% | viability, T/C [14]: 106% | viability, T/C [15]: 102% | viability, T/C [16]: 96.6% | viability, T/C [17]: 69.9% | viability, T/C [18]: 30.1% | viability, T/C [19]: 93.2% | viability, T/C [20]: 97.3% | viability, T/C [21]: 99.3% | viability, T/C [22]: 95.9% | viability, T/C [23]: 69.2% | viability, T/C [24]: 24.8% | viability, T/C [25]: 99% | viability, T/C [26]: 102% | viability, T/C [27]: 94.3% | viability, T/C [28]: 97.7% | viability, T/C [29]: 68.1% | viability, T/C [30]: 25.9% | viability, T/C [31]: 94% | viability, T/C [32]: 94% | viability, T/C [33]: 89.2% | viability, T/C [34]: 86.1% | viability, T/C [35]: 51.7% | viability, T/C [36]: 29.6%

COc1ccc([C@@H](O)c2cc(-c3ncnc4cc(N5CCOCC5)ccc34)c(F)cc2Cl)nn1 + CN(C)c1ccc(Nc2c3ccc(NC(=O)CCN4CCCC4)cc3nc3cc(NC(=O)CCN4CCCC4)ccc23)cc1
IC50 (second compound 0.0316 µM): > 10 µM | IC50 (second compound 0.1 µM): > 10 µM | IC50 (second compound 0.316 µM): > 10 µM | IC50 (second compound 1 µM): 8.16 µM | IC50 (second compound 3.16 µM): 6.04 µM | IC50 (second compound 10 µM): 3.4 µM | viability, T/C [1]: 105% | viability, T/C [2]: 99.2% | viability, T/C [3]: 101% | viability, T/C [4]: 98.1% | viability, T/C [5]: 93.1% | viability, T/C [6]: 58.6% | viability, T/C [7]: 96.3% | viability, T/C [8]: 94.6% | viability, T/C [9]: 104% | viability, T/C [10]: 102% | viability, T/C [11]: 87.6% | viability, T/C [12]: 55.6% | viability, T/C [13]: 101% | viability, T/C [14]: 93% | viability, T/C [15]: 102% | viability, T/C [16]: 103% | viability, T/C [17]: 97.7% | viability, T/C [18]: 54.6% | viability, T/C [19]: 97.7% | viability, T/C [20]: 100% | viability, T/C [21]: 94.3% | viability, T/C [22]: 92.7% | viability, T/C [23]: 89.1% | viability, T/C [24]: 41.3% | viability, T/C [25]: 91% | viability, T/C [26]: 89.9% | viability, T/C [27]: 90.4% | viability, T/C [28]: 101% | viability, T/C [29]: 74.9% | viability, T/C [30]: 30.6% | viability, T/C [31]: 91.3% | viability, T/C [32]: 90.8% | viability, T/C [33]: 93.7% | viability, T/C [34]: 64.2% | viability, T/C [35]: 57.6% | viability, T/C [36]: 10.2%

O=C(c1cc(Cc2n[nH]c(=O)c3ccccc23)ccc1F)N1CCN(C(=O)C2CC2)CC1 + CN(C)c1ccc(Nc2c3ccc(NC(=O)CCN4CCCC4)cc3nc3cc(NC(=O)CCN4CCCC4)ccc23)cc1
IC50 (second compound 0.0316 µM): > 10 µM | IC50 (second compound 0.1 µM): > 10 µM | IC50 (second compound 0.316 µM): > 10 µM | IC50 (second compound 1 µM): > 10 µM | IC50 (second compound 3.16 µM): > 10 µM | IC50 (second compound 10 µM): > 10 µM | viability, T/C [1]: 100% | viability, T/C [2]: 95.7% | viability, T/C [3]: 103% | viability, T/C [4]: 111% | viability, T/C [5]: 110% | viability, T/C [6]: 71.9% | viability, T/C [7]: 103% | viability, T/C [8]: 102% | viability, T/C [9]: 104% | viability, T/C [10]: 103% | viability, T/C [11]: 111% | viability, T/C [12]: 74.8% | viability, T/C [13]: 104% | viability, T/C [14]: 114% | viability, T/C [15]: 112% | viability, T/C [16]: 106% | viability, T/C [17]: 99.3% | viability, T/C [18]: 68.6% | viability, T/C [19]: 108% | viability, T/C [20]: 100% | viability, T/C [21]: 96.9% | viability, T/C [22]: 97.3% | viability, T/C [23]: 104% | viability, T/C [24]: 69% | viability, T/C [25]: 112% | viability, T/C [26]: 97.8% | viability, T/C [27]: 98.8% | viability, T/C [28]: 109% | viability, T/C [29]: 105% | viability, T/C [30]: 57.4% | viability, T/C [31]: 96.6% | viability, T/C [32]: 82.9% | viability, T/C [33]: 99.3% | viability, T/C [34]: 99.6% | viability, T/C [35]: 67% | viability, T/C [36]: 54.9%
